Test results reported in ChEMBL document CHEMBL4706705 (Bioorg Med Chem, 2021).
Activity calls are given as the source filed them. The calls are words filed in the database; no cut-off is given here.

What was measured:
[1] = Drug level in rat treated with osimertinib at 5 mg/kg, po by LC-MS analysis; format: ADME, organism-based; settings: in vivo
[2] = molecular target: Epidermal growth factor receptor (Homo sapiens, UniProt P00533, L858R/T790M); assay: Inhibition of recombinant human N-terminal GST-tagged EGFR T790M/L858R double mutant using biotinylated TK peptide as substrate measured after 30 mins by HTRF assay
A-431 = assay: Cytotoxicity against human A-431 cells harboring wild-type EGFR measured after 72 hrs by celltiter-glo assay; format: cell-based; settings: A-431, 72 h
[3] = molecular target: Epidermal growth factor receptor (Homo sapiens, UniProt P00533); assay: Inhibition of wild-type EGFR (unknown origin) using biotinylated TK peptide as substrate measured after 30 mins by HTRF assay
NCI-H1975 [4] = assay: Antiproliferative activity against human NCI-H1975 cells harboring EGFR L858R/T790M double mutant measured after 72 hrs by celltiter-glo assay; format: functional, cell-based; settings: NCI-H1975, 72 h
Mus musculus [5] = assay: In vivo inhibition of EGFR T790M/L858R double mutant in nude mouse xenografted with human NCI-H1975 cells assessed as reduction in EGFR phosphorylation at 5 mg, ig measured after 6 hrs by Western blot analysis; format: functional, organism-based
[6] = Drug level in rat treated with N-(5-(4-(1-cyclopropyl-1H-indol-3-yl)pyrimidin-2-ylamino)-2-((2-(dimethylamino)ethyl)(methyl)amino)-4-methoxyphenyl)acrylamide at 5 mg/kg, po by LC-MS analysis; format: ADME, organism-based; settings: in vivo
Mus musculus [7] = assay: In vivo inhibition of EGFR T790M/L858R double mutant in nude mouse xenografted with human NCI-H1975 cells assessed as reduction in AKT phosphorylation at 5 mg, ig measured after 6 hrs by Western blot analysis; format: functional, organism-based
NCI-H1975 [8] = assay: Antitumor activity against human NCI-H1975 cells harboring EGFR L858R/T790M double mutant xenografted in BALB/c nude mouse assessed as tumor growth inhibition at 5 mg/kg, po administered once daily for 11 days relative to control; format: functional; settings: time 11 day
[9] = Tmax in rat assessed as N-(5-(4-(1-cyclopropyl-1H-indol-3-yl)pyrimidin-2-ylamino)-4-methoxy-2-(methyl(2-(methylamino)ethyl)amino)phenyl)acrylamide level at 5 mg/kg, po by LC-MS analysis; format: ADME, organism-based; settings: in vivo
[10] = Cmax in rat at 5 mg/kg, po by LC-MS analysis; format: ADME, organism-based; parameters: route oral, dose 5 mg/kg; settings: in vivo
[11] = Half life in rat at 5 mg/kg, po by LC-MS analysis; format: ADME, organism-based; settings: in vivo
[12] = Toxicity in BALB/c nude mouse xenografted with human NCI-H1975 cells harboring EGFR T790M/L858R double mutant assessed as effect on body weight at 5 mg/kg, po administered once daily for 11 days measured twice daily during compound dosing; format: organism-based; settings: in vivo, 264 h, time 11 day
[13] = AUC (0 to infinity) in rat at 5 mg/kg, po by LC-MS analysis; format: ADME, organism-based; parameters: time infinity, route oral, dose 5 mg/kg; settings: in vivo
Mus musculus [14] = assay: In vivo inhibition of EGFR T790M/L858R double mutant in nude mouse xenografted with human NCI-H1975 cells assessed as reduction in ERK phosphorylation at 5 mg, ig measured after 6 hrs by Western blot analysis; format: functional, organism-based
[15] = Tmax in rat at 5 mg/kg, po by LC-MS analysis; format: ADME, organism-based; settings: in vivo
[16] = Oral bioavailability in rat at 5 mg/kg by LC-MS analysis; format: ADME, organism-based; settings: in vivo
[17] = AUC (0 to 8 hrs) in rat assessed as N-(5-(4-(1-cyclopropyl-1H-indol-3-yl)pyrimidin-2-ylamino)-4-methoxy-2-(methyl(2-(methylamino)ethyl)amino)phenyl)acrylamide level at 5 mg/kg, po by LC-MS analysis; format: ADME, organism-based; parameters: time < 8 hr, route oral, dose 5 mg/kg; settings: in vivo
NCI-H1975 [18] = assay: Potency index, ratio of osimertinib IC50 to test compound IC50 for antiproliferative activity against human NCI-H1975 cells harboring EGFR L858R/T790M double mutant; format: functional
[19] = MRT (0 to infinity) in rat at 5 mg/kg, po by LC-MS analysis; format: ADME, organism-based; settings: in vivo
[20] = AUC (0 to 8 hrs) in rat at 5 mg/kg, po by LC-MS analysis; format: ADME, organism-based; parameters: time < 8 hr, route oral, dose 5 mg/kg; settings: in vivo
[21] = Cmax in rat assessed as N-(5-(4-(1-cyclopropyl-1H-indol-3-yl)pyrimidin-2-ylamino)-4-methoxy-2-(methyl(2-(methylamino)ethyl)amino)phenyl)acrylamide level at 5 mg/kg, po by LC-MS analysis; format: ADME, organism-based; parameters: route oral, dose 5 mg/kg; settings: in vivo
[22] = Tmax in rat assessed as N-(5-(4-(1H-indol-3-yl)pyrimidin-2-ylamino)-2-((2-(dimethylamino)ethyl)(methyl)amino)-4-methoxyphenyl)acrylamide level at 5 mg/kg, po by LC-MS analysis; format: ADME, organism-based; settings: in vivo
[23] = MRT (0 to infinity) in rat assessed as N-(5-(4-(1H-indol-3-yl)pyrimidin-2-ylamino)-2-((2-(dimethylamino)ethyl)(methyl)amino)-4-methoxyphenyl)acrylamide level at 5 mg/kg, po by LC-MS analysis; format: ADME, organism-based; settings: in vivo
[24] = Cmax in rat assessed as N-(5-(4-(1H-indol-3-yl)pyrimidin-2-ylamino)-2-((2-(dimethylamino)ethyl)(methyl)amino)-4-methoxyphenyl)acrylamide level at 5 mg/kg, po by LC-MS analysis; format: ADME, organism-based; parameters: route oral, dose 5 mg/kg; settings: in vivo
[25] = Drug metabolism in rat assessed as N-(4-methoxy-2-(methyl(2-(methylamino)ethyl)amino)-5-(4-(1-methyl-1H-indol-3-yl)pyrimidin-2-ylamino)phenyl)acrylamide formation at 5 mg/kg, po by LC-MS analysis; format: ADME, organism-based; settings: in vivo

Sequence of Epidermal growth factor receptor (Homo sapiens, UniProt P00533, L858R/T790M) (P00533 25-1210 T790M/L858R limits assumed): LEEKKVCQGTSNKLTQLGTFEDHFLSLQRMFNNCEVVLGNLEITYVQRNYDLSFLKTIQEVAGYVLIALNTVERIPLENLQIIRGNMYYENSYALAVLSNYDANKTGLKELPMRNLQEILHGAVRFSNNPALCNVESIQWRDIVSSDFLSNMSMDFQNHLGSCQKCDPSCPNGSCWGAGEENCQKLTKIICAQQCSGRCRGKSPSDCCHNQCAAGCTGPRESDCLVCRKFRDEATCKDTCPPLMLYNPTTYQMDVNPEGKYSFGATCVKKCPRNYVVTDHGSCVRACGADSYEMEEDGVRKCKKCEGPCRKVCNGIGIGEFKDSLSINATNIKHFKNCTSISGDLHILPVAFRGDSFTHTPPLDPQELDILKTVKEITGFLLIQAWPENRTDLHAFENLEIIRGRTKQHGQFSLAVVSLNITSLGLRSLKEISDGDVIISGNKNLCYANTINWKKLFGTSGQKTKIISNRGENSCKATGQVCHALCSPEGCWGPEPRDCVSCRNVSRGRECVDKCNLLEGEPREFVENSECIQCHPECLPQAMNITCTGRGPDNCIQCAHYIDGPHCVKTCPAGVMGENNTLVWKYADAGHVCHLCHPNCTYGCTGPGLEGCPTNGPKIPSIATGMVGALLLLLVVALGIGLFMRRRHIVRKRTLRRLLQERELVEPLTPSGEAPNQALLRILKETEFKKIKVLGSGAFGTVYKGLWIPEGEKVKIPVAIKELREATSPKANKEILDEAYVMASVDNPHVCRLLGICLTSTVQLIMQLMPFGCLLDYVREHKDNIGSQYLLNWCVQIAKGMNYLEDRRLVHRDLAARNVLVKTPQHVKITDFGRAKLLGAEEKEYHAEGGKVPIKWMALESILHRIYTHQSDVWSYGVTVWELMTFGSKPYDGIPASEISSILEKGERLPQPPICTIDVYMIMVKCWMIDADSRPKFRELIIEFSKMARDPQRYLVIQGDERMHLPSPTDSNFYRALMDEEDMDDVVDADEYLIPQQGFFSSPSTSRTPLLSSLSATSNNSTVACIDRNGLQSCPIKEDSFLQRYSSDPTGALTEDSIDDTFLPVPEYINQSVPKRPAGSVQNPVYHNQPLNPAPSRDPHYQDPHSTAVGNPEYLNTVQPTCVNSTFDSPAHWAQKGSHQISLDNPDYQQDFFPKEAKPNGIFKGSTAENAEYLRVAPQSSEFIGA
Sequence of Epidermal growth factor receptor (Homo sapiens, UniProt P00533) (P00533 whole entry): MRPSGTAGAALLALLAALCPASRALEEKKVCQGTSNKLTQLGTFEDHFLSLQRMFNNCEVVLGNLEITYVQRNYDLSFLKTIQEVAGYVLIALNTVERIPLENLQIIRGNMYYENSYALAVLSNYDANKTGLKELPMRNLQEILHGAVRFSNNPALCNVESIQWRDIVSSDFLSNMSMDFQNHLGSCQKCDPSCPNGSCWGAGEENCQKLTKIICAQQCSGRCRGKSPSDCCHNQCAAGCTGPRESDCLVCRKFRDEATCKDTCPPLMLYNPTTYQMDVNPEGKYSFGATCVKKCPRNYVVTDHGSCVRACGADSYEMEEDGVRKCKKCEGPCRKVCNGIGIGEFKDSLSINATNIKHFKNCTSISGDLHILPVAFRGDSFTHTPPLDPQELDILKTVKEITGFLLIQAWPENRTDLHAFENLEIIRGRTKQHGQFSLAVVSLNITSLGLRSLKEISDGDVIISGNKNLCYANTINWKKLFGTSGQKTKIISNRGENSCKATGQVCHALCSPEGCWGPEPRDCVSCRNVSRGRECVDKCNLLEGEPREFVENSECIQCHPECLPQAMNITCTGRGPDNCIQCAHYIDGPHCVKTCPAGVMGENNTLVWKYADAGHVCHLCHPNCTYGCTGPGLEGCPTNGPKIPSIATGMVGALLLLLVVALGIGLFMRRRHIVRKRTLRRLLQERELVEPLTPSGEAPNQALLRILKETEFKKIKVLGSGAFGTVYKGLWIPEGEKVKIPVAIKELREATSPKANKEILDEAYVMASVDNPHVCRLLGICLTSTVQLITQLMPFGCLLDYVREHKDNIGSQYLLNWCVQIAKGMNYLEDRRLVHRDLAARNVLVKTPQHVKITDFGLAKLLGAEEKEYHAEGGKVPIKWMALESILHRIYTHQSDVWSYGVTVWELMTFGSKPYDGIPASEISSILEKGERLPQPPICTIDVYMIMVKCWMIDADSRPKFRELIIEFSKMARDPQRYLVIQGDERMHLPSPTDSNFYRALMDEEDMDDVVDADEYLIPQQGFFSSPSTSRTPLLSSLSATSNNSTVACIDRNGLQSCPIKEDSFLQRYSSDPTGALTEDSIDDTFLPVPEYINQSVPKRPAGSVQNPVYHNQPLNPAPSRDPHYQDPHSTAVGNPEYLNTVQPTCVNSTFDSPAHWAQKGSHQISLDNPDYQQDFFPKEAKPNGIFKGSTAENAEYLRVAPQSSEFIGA

With `C=CC(=O)Nc1cc(Nc2nccc(-c3c[nH]c4ccccc34)n2)c(OC)cc1N(C)CCN(C)C` the Drug uptake [1] was “Active”.
With `C=CC(=O)Nc1cc(Nc2nccc(-c3cn(C)c4ccccc34)n2)c(OC)cc1N(C)CCNC` the Drug uptake [1] was “Active”.
Work on `C=CC(=O)Nc1cc(Nc2nccc(-c3cn(C(C)=O)c4ccccc34)n2)c(OC)cc1N(C)CCN(C)C` yielded an IC50 [2] of 0.00209 µM, an IC50 (A-431) of 0.192 µM and an IC50 [3] of 0.0155 µM. The IC50 (NCI-H1975 [4]) was 0.0158 µM.
Compound `C=CC(=O)Nc1cc(Nc2nccc(-c3cn(CCO)c4ccccc34)n2)c(OC)cc1N(C)CCN(C)C` has an IC50 [2] of 0.00086 µM, an IC50 (A-431) of 0.208 µM and an IC50 [3] of 0.00154 µM. The IC50 (NCI-H1975 [4]) was 0.0022 µM.
In the case of `C=CC(=O)Nc1cc(Nc2ncc(C(F)(F)F)c(-c3cn(C4CC4)c4ccccc34)n2)c(OC)cc1N(C)CCN(C)C`, the IC50 (A-431) is reported as 0.059 µM, the inhibition (Mus musculus [5]) is reported as “Active” and the IC50 (NCI-H1975 [4]) is reported as 0.00815 µM.
In the case of `C=CC(=O)Nc1cc(Nc2nccc(-c3cn(C4CC4)c4ccccc34)n2)c(OC)cc1N(C)CCNC`, the Drug uptake [6] is reported as “Active”.
Work on `C=CC(=O)Nc1cc(Nc2nccc(-c3cn(C4COC4)c4ccccc34)n2)c(OC)cc1N(C)CCN(C)C` yielded an IC50 (A-431) of 0.0843 µM.
For `C#CCn1cc(-c2ccnc(Nc3cc(NC(=O)C=C)c(N(C)CCN(C)C)cc3OC)n2)c2ccccc21`, the IC50 [2] was 0.00101 µM, the IC50 (A-431) was 0.69 µM and the IC50 (NCI-H1975 [4]) was 0.00622 µM.
In the case of `C=CCn1cc(-c2ccnc(Nc3cc(NC(=O)C=C)c(N(C)CCN(C)C)cc3OC)n2)c2ccccc21`, the IC50 [2] is reported as 0.00151 µM, the IC50 [3] is reported as 0.0154 µM and the inhibition (Mus musculus [5]) is reported as “Active”. The IC50 (NCI-H1975 [4]) was 0.034 µM and the inhibition (Mus musculus [7]) was “Active”.
In the case of `C=CC(=O)Nc1cc(Nc2ncc(C(F)(F)F)c(-c3cn(C4COC4)c4ccccc34)n2)c(OC)cc1N(C)CCN(C)C`, the inhibition (Mus musculus [5]) is reported as “Active”.
With `C=CC(=O)Nc1cc(Nc2nccc(-c3cn(C4CC4)c4ccccc34)n2)c(OC)cc1N(C)CCN(C)C` [AUMOLERTINIB] the IC50 [2] was 0.00018 µM, the inhibition in vivo at 5 mg/kg (NCI-H1975 [8]; Mus musculus, NCI-H1975, po, 264 h, read-out: TGI) was 83% and the Tmax [9] was 6 h. For the same compound, the Cmax [10] was 528 ng/mL, the half-life [11] was 7 h and the Activity [12] was “Non-Toxic”. The AUC(0-inf) [13] was 5150 ng·h/mL, the IC50 (A-431) was 0.209 µM and the inhibition (Mus musculus [14]) was “Active”. The Tmax [15] was 1 h, the IC50 [3] was 0.00289 µM and the inhibition (Mus musculus [5]) was “Active”. The bioavailability [16] was 52%, the AUC [17] was 2062 ng·h/mL and the “Ratio IC50” value (NCI-H1975 [18]) was 10. For the same compound, the IC50 (NCI-H1975 [4]) was 0.00144 µM, the inhibition (Mus musculus [7]) was “Active” and the MRT inf [19] was 9.2 h. The AUC(0-t) at 8 h [20] was 4580 ng·h/mL and the Cmax [21] was 126 ng/mL.
`C=CC(=O)Nc1cc(Nc2nccc(-c3cn(C)c4ccccc34)n2)c(OC)cc1N(C)CCN(C)C` [OSIMERTINIB] gave a TGI (NCI-H1975 [8]) of 70%, a Tmax [22] of 6 h and a Cmax [10] of 81.4 ng/mL. The half-life [11] was 5.4 h, the IC50 (A-431) was […] and the inhibition (Mus musculus [14]) was “Active”. The Tmax [15] was 1 h, the inhibition (Mus musculus [5]) was “Active” and the bioavailability [16] was 9%. The IC50 (NCI-H1975 [4]) was […], the MRT [23] was 14.1 h and the Cmax [24] was 48.3 ng/mL. The inhibition (Mus musculus [7]) was “Active”, the MRT inf [19] was 9 h and the Drug metabolism [25] was “Metabolite_Detected”.
